PubChem BioAssay (NCI)
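In this assay, cells in 96-well plates receive the compound at five concentrations for 48 hours. Endpoints are linearly interpolated between the surrounding concentrations. TGI: total growth inhibition.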

Assays:
Assay in all cases: growth of human tumour cells (NCI), 48 h
[1] = system: SR leukemia
[2] = system: NCI-H23 lung
[3] = system: SF-539 CNS
[4] = system: DLD-1 colon
[5] = system: DMS 273 small cell lung
[6] = system: K-562 leukemia
[7] = system: COLO 205 colon
[8] = system: M14 melanoma
[9] = system: RXF 393 renal
[10] = system: HT29 colon
[11] = system: OVCAR-4 ovarian
[12] = system: HL-60(TB) leukemia
[13] = system: MALME-3M melanoma
[14] = system: LOX IMVI melanoma
[15] = system: EKVX NSCLC
[16] = system: SK-MEL-28 melanoma
[17] = system: RXF-631 renal
[18] = system: M19-MEL melanoma
[19] = system: UACC-62 melanoma
[20] = system: KM12 colon
[21] = system: A498 renal
[22] = system: CCRF-CEM leukemia
[23] = system: SF-295 CNS
[24] = system: MOLT-4 leukemia
[25] = system: SF-268 CNS
[26] = system: SW-620 colon
[27] = system: LXFL 529 NSCLC
[28] = system: NCI-H460 lung
[29] = system: SK-OV-3 ovarian
[30] = system: TK-10 renal
[31] = system: DMS 114 small cell lung
[32] = system: OVCAR-3 ovarian
[33] = system: OVCAR-8 ovarian
[34] = system: ACHN renal
[35] = system: SK-MEL-5 melanoma
[36] = system: SN12C renal
[37] = system: U251 CNS
[38] = system: A549 NSCLC
[39] = system: HCT-15 colon
[40] = system: HCC-2998 colon
[41] = system: IGROV1 ovarian
[42] = system: RPMI-8226 leukemia
[43] = system: SNB-78 CNS
[44] = system: 786-0 renal
[45] = system: SNB-75 CNS
[46] = system: UO-31 renal
[47] = system: HOP-18 NSCLC
[48] = system: OVCAR-5 ovarian
[49] = system: HCT-116 colon
[50] = system: CAKI-1 renal
[51] = system: SNB-19 CNS
[52] = system: NCI-H522 lung
[53] = system: HOP-62 NSCLC
[54] = system: KM20L2 colon
[55] = system: SK-MEL-2 melanoma
[56] = system: NCI-H226 lung
[57] = system: HOP-92 NSCLC
[58] = system: UACC-257 melanoma
[59] = system: XF 498 CNS

Measured: TGI

CC1CC2C(=O)N(c3ccccc3)C(=O)C2c2[nH]c3ccccc3c21 (stereo not drawn)
55.1 µM: [45]
36.7 µM: [29]
not listed: [46] | [47] | [48] | [49] | [50] | [51] | [52] | [53] | [54] | [55] | [56] | [57] | [58] | [59]
> 100 µM: all other assays above

CCOC(=O)c1c(/C=N\Nc2ccccc2)nc2ccccc2c1-c1ccccc1
76.9 µM: [19]
88 µM: [22]
98.1 µM: [31]
61.4 µM: [1]
85.6 µM: [35]
50.1 µM: [12]
68.8 µM: [24]
53 µM: [7]
77 µM: [40]
83.8 µM: [42]
67.1 µM: [52]
60.7 µM: [18]
98.7 µM: [46]
90.5 µM: [13]
not listed: [4] | [59]
> 100 µM: all other assays above

Cc1ccc(C)c(C(=O)CC2OC(O)C(Cl)C2Cl)c1 (stereo not drawn)
77.3 µM: [57]
33.6 µM: [33]
48.4 µM: [14]
84.4 µM: [50]
34.4 µM: [4]
32.5 µM: [27]
29.4 µM: [52]
86 µM: [9]
33.5 µM: [26]
53.2 µM: [3]
95.7 µM: [12]
not listed: [17] | [44]
> 100 µM: all other assays above

Cn1ncc2c(c1=O)Nc1ccccc1S2(=O)=O
97.6 µM: [42]
32.4 µM: [26]
49 µM: [3]
75.3 µM: [44]
40.9 µM: [31]
not listed: [9] | [12] | [17] | [59]
> 100 µM: all other assays above

COC(=O)C1=C(C)C(=O)C2(CCCCCC2C(=O)OC)C1 (stereo not drawn)
not listed: [14] | [17] | [32] | [59]
> 100 µM: all other assays above

Cn1nc(-c2ccccc2)c(C(=O)/C=C/c2ccccc2)c(N2CCCC2)c1=O
37.3 µM: [18]
33.4 µM: [54] | [44]
41 µM: [19]
35.7 µM: [35]
26.4 µM: [37]
40.6 µM: [22]
29.3 µM: [42]
35.3 µM: [8]
22.3 µM: [24]
77.6 µM: [36]
88.2 µM: [14]
41.5 µM: [34]
32.4 µM: [28]
26.9 µM: [10] | [21]
> 100 µM: [17] | [38]
23.7 µM: [52]
32.8 µM: [16]
64.2 µM: [25]
38.7 µM: [46]
93.1 µM: [5]
24.2 µM: [53]
6.23 µM: [57]
22.7 µM: [12]
26.3 µM: [3]
53.7 µM: [26]
39.9 µM: [59]
29.9 µM: [2]
47.1 µM: [47]
53.5 µM: [15]
23.9 µM: [9]
55.7 µM: [41]
34.4 µM: [27]
30 µM: [7]
19.2 µM: [49]
49.3 µM: [30]
85.9 µM: [29]
72.5 µM: [39]
34.2 µM: [4] | [31]
76.5 µM: [33]
40.9 µM: [6]

O=C1NC2(CCCCC2)C2=C1CCCCC2
not listed: [17] | [40] | [42] | [54] | [56]
> 100 µM: all other assays above

COc1ccc(Sc2ccccc2[N+](=O)[O-])cc1
29.7 µM: [7]
62.1 µM: [40]
41.3 µM: [37]
58.9 µM: [32]
19.7 µM: [45]
78.7 µM: [9]
20.8 µM: [12]
45.8 µM: [56]
46.4 µM: [16]
98.4 µM: [43]
59.9 µM: [10]
not listed: [23] | [31] | [34] | [44] | [50] | [52] | [54] | [59]
> 100 µM: all other assays above
